Values quoted from earlier work in PubChem BioAssay AID1259409 (Chemical Carcinogenesis Research Information System (CCRIS), 2018).

System: rodent chemically induced tumor inhibition, incidence and multiplicity
Assay: CCRIS tumor inhibitor studies
Settings: for outcome: Carcinogen: NONE, Strain/Sex: APC/MIN/MALE

Question: For `NCCCC(N)(C(=O)O)C(F)F` (centres undefined), which “tumour outcome (control, treated, inhibition, significance)” value (Carcinogen: N-METHYL-N-NITROSOUREA, 684-93-5, Dose [Inhibitor]: 0.5 ML OF 2% AGENT IN 0.9% SALINE SOLUTION TWICE IN WK 1 THEN ONCE 2 HR POST CARCINOGEN TREATMENT THEN TWICE IN WK 2 (ST, Route [Inhibitor]: INTRAVESICAL, Species: RAT, Strain/Sex: F344/MALE, Target Tissue: Type of Lesion: BLADDER: CARCINOMA, Dose [Carcinogen]: 0.25 MG IN 0.5 ML OF 0.9% SALINE SOLUTION ONCE, Promoter: URINE) is on record?
Answer: Its value is 31/36 (86%), 27/38 (71%), 17%, not calculated.

Question: What about the “tumour outcome (control, treated, inhibition, significance)” value (Carcinogen: N-METHYL-N-NITROSOUREA, 684-93-5, Dose [Inhibitor]: 2% IN URINE 2/WK FOR 30 WK BEGINNING 1 WK POST CARCINOGEN DOSE (STUDY DURATION: 35 WK), Route [Inhibitor]: INTRAVESICAL, Species: RAT, Strain/Sex: F344/MALE, Target Tissue: Type of Lesion: BLADDER: CARCINOMA, Dose [Carcinogen]: 0.25 MG IN 0.5 ML OF 0.9% SALINE SOLUTION ONCE, Promoter: URINE) of the same compound?
Answer: The value was 25/36 (69%), 13/35 (37%), 46%, p<0.025.

Question: What about the “tumour outcome (control, treated, inhibition, significance)” value (Carcinogen: N-METHYL-N-NITROSOUREA, 684-93-5, Dose [Inhibitor]: 2% IN URINE 2/WK FOR 41 WK BEGINNING 1 WK POST CARCINOGEN DOSE (STUDY DURATION: 50 WK), Route [Inhibitor]: INTRAVESICAL, Species: RAT, Strain/Sex: F344/MALE, Target Tissue: Type of Lesion: BLADDER: CARCINOMA, Dose [Carcinogen]: 0.25 MG IN 0.5 ML OF 0.9% SALINE SOLUTION ONCE, Promoter: URINE) of the same compound?
Answer: The value was 31/36 (86%), 30/38 (79%), 8%, not calculated.

Question: What about the outcome (Dose [Inhibitor]: 0.5% IN DRINKING WATER FOR 2 MONTHS (STUDY DURATION: 2 MONTHS), Route [Inhibitor]: ORAL, Species: MOUSE, Target Tissue: Type of Lesion: DISTAL SMALL INTESTINE: TUMOR, Promoter: NONE) of the same compound?
Answer: The outcome was 10.38, 3.67, 65%, p<0.001.

Question: What about the outcome (Dose [Inhibitor]: 0.5% IN DRINKING WATER FOR 2 MONTHS (STUDY DURATION: 2 MONTHS), Route [Inhibitor]: ORAL, Species: MOUSE, Target Tissue: Type of Lesion: MIDDLE SMALL INTESTINE: TUMOR, Promoter: NONE) of the same compound?
Answer: The outcome was 23.75, 19.80, 17%, not significant.

Question: And the outcome (Dose [Inhibitor]: 0.5% IN DRINKING WATER FOR 2 MONTHS (STUDY DURATION: 2 MONTHS), Route [Inhibitor]: ORAL, Species: MOUSE, Target Tissue: Type of Lesion: PROXIMAL SMALL INTESTINE: TUMOR, Promoter: NONE)?
Answer: The outcome was 7.63, 6.40, 16%, not significant.

Question: And the outcome (Dose [Inhibitor]: 1.0% IN DRINKING WATER FOR 2 MONTHS (STUDY DURATION: 2 MONTHS), Route [Inhibitor]: ORAL, Species: MOUSE, Target Tissue: Type of Lesion: DISTAL SMALL INTESTINE: TUMOR, Promoter: NONE)?
Answer: The outcome was 10.38, 1.73, 83%, p<0.001.

Question: What about the outcome (Dose [Inhibitor]: 1.0% IN DRINKING WATER FOR 2 MONTHS (STUDY DURATION: 2 MONTHS), Route [Inhibitor]: ORAL, Species: MOUSE, Target Tissue: Type of Lesion: MIDDLE SMALL INTESTINE: TUMOR, Promoter: NONE) of the same compound?
Answer: The outcome was 23.75, 13.80, 42%,p<0.01.

Question: What about the “tumour outcome (control, treated, inhibition, significance)” value (Carcinogen: UV-A (20%), UV-B (80%) (WESTINGHOUSE FS320 SUNLAMP IN 280-400 NM), Dose [Inhibitor]: 0, 0.4% IN DRINKING WATER FOR 8 WK BEGINNING 22 WK POST CARCINOGEN FIRST DOSE (STUDY DURATION: 30 WK), Route [Inhibitor]: ORAL, Species: MOUSE, Strain/Sex: SKH:HR-1-HBR/FEMALE, Target Tissue: Type of Lesion: SKIN: TUMOR, Dose [Carcinogen]: 90 MJ/CM2 3 TIMES/WK, DOSE INCREASED BY 10% UNTIL REACHED 175 MJ/CM^2, BEGINNING 2 D POST AGENT DOSE, TREATMENT WS STOPP, Promoter: NONE) of the same compound?
Answer: Its value is “?/? (100%), ?/? (95%), 5%, data presented graphically, not calculated”.

Question: And the “tumour outcome (control, treated, inhibition, significance)” value (Carcinogen: UV-A (20%), UV-B (80%) (WESTINGHOUSE FS320 SUNLAMP IN 280-400 NM), Dose [Inhibitor]: 0, 0.4% IN DRINKING WATER FOR 18 WK BEGINNING 12 WK POST CARCINOGEN FIRST DOSE (STUDY DURATION: 30 WK), Route [Inhibitor]: ORAL, Species: MOUSE, Strain/Sex: SKH:HR-1-HBR/FEMALE, Target Tissue: Type of Lesion: SKIN: TUMOR, Dose [Carcinogen]: 90 MJ/CM2 3 TIMES/WK, DOSE INCREASED BY 10% UNTIL REACHED 175 MJ/CM^2, BEGINNING 2 D POST AGENT DOSE, TREATMENT WS STOPP, Promoter: NONE)?
Answer: The value was “?/? (100%), ?/? (100%), 0%, data presented graphically, not calculated”.

Question: And the “tumour outcome (control, treated, inhibition, significance)” value (Carcinogen: UV-A (20%), UV-B (80%) (WESTINGHOUSE FS320 SUNLAMP IN 280-400 NM), Dose [Inhibitor]: 0, 0.4% IN DRINKING WATER FOR DURATION OF STUDY (STUDY DURATION: 30 WK), Route [Inhibitor]: ORAL, Species: MOUSE, Strain/Sex: SKH:HR-1-HBR/FEMALE, Target Tissue: Type of Lesion: SKIN: TUMOR, Dose [Carcinogen]: 90 MJ/CM2 3 TIMES/WK, DOSE INCREASED BY 10% UNTIL REACHED 175 MJ/CM^2, BEGINNING 2 D POST AGENT DOSE, TREATMENT WS STOPP, Promoter: NONE)?
Answer: The value was “?/? (100%), ?/? (73%), 27%, data presented graphically, not calculated”.

Question: What about the “tumour outcome (control, treated, inhibition, significance)” value (Carcinogen: UVB IRRADIATION, Dose [Inhibitor]: 0, 1% IN DRINKING WATER FOR DURATION OF STUDY BEGINNING 3 WK PRIOR TO CARCINOGEN TREATMENT (STUDY DURATION: 36 WK), Route [Inhibitor]: ORAL, Species: MOUSE, Strain/Sex: BALB/FEMALE, Target Tissue: Type of Lesion: SKIN: TUMOR, Dose [Carcinogen]: 1273 KJM2 TOTAL DOSE ADMINISTERED IN 30 MIN TREATMENTS 5 D/WK, Promoter: NONE USED) of the same compound?
Answer: Its value is 38%, 9%, 76%, p=0.025.

Question: What about the “tumour outcome (control, treated, inhibition, significance)” value (Dose [Inhibitor]: 0, 2% IN DRINKING WATER FOR 3 WK THEN REDUCED TO 1% FOR DURATION OF STUDY (STUDY DURATION: 9 MO), Route [Inhibitor]: ORAL, Species: RAT, Strain/Sex: F344/MALE, Target Tissue: Type of Lesion: LIVER: HEPATOCELLULAR CARCINOMA, Dose [Carcinogen]: 25 UG IN 0.2 ML DMSO 5 D/WK FOR 4 WK, Promoter: NONE USED) of the same compound?
Answer: The value was 40%, 16%, 60%, p<0.01.

Question: And the “tumour outcome (control, treated, inhibition, significance)” value (Dose [Inhibitor]: 0, 2% IN DRINKING WATER FOR 3 WK THEN REDUCED TO 1% FOR DURATION OF STUDY ADMINISTERED TO RATS MAINTAINED ON CHOLINE-DEF, Route [Inhibitor]: ORAL, Species: RAT, Strain/Sex: F344/MALE, Target Tissue: Type of Lesion: LIVER: HEPATOCELLULAR CARCINOMA, Dose [Carcinogen]: 25 UG IN 0.2 ML DMSO 5 D/WK FOR 4 WK, Promoter: NONE USED)?
Answer: Its value is 71%, 28%, 61%, not calculated.
